Measurements published in PMC12645191, “Dicarboxylate and dicarboxylic acid appended supramolecular self-associating amphiphiles as antimicrobial agents against high priority bacterial pathogens” (Organic & Biomolecular Chemistry, 2025).
Several values for one entry are separate records, joined by “and”; a condition that tells them apart may be missing. Identical values can stand only once. Like-named read-outs stand apart in the source and are kept apart here.

Legend:
[1] = test system: E. faecalis NCTC 775; assay: inhibition of bacterial growth, OD600 after 20 h; assay type: cell-based, Enterococcus faecalis; conditions: SSA 5.0 mM, 2.5% ethanol, negative = enhanced growth
Description: (§1) With the self-associative properties of 1–10 established, the antimicrobial activity of these SSAs were determined against a panel of clinically relevant, high-priority pathogens including: P. aeruginosa PAO1; Klebsiella pneumonia (K. pneumoniae) M6; E. coli NCTC 12923; Acinetobacter baumannii (A. baumannii) ATCC 17978; S. aureus ATCC 9144; Enterococcus faecalis (E. faecalis) NCTC 775; and Enterococcus faecium (E. faecium) NCTC 12204. […] However, it should be noted that the SSA stock solution was prepared in a H2O 5% EtOH solution, to ensure that the SSA aggregates formed were in line with those characterised within the scope of the SSA self-association studies.
(§2) Section 3: Biological methods
(§3) These methods were taken directly from UK Health and Security Office (UKHSA) standard […]
(§4) Preparation of Luria Broth media (LB): Yeast extract (5.0 g), tryptone (10.0 g) and sodium chloride (10.0 g) were dissolved in dH₂O (1.0 L) then divided into bottles and autoclaved.
(§5) Preparation of Luria Broth (LB) agar plates: Agar (6.0 g) was added to LB (400 mL) and autoclaved. Once cool, the LB agar was poured into sterile petri dishes under sterile conditions and allowed to set. LB plates were stored at 4 °C until use.
(§6) Preparation of bacterial plates: Sterile LB agar plates were streaked using streaked using the desired bacteria i) Pseudomonas aeruginosa (P.aeruginosa) PAO1, ii) Klebsiella pneumoniae (K. pneumoniae) M6 iii) E. coli NCTC 12923 and iv) Acinetobacter baumannii (A. baumannii) ATCC 17978 and Gram-positive i) Staphylococcus aureus (S. aureus) ATCC 9144 ii) Enterococcus faecalis (E. faecalis) NCTC 775 and iii) Enterococcus faecium (E. faecium ) NCTC 12204, then incubated at 37 °C overnight.
(§7) Preparation of Inoculum: An initial culture was made up by inoculating LB media (5 mL) with a single colony of bacteria under sterile conditions and incubated at 37 °C with shaking overnight. The following day, overnight bacterial cultures were subcultured into fresh LB medium to a starting OD600 of 0.01.
(§8) Preparation of 96 well microplate for MIC50: The 1:100 cell suspension (150 µL) was dispensed into individual wells under sterile conditions. SSAs (30 µL) were added to the wells to equal a total volume of 180 µL in the wells. Six repeats of each concentration for each SSA were created each plate. The plates were sealed using parafilm, then incubated at 37 °C in a microplate reader for 20 hours. OD600 endpoint data was used to generate growth curves. […]

[2] = test system: A. baumannii ATCC 17978; assay: inhibition of bacterial growth, OD600 after 20 h; assay type: cell-based, Acinetobacter baumannii; conditions: SSA 5.0 mM, 2.5% ethanol, negative = enhanced growth
Description: as §1, §2, §3, §4, §5, §6, §7, §8

[3] = protein binding in human plasma by equilibrium dialysis; assay type: in vitro ADME; conditions: human plasma, 5 µM, 37 °C; for recovery at 6 h, 5 µM / remaining at 6 h, 5 µM / fraction unbound at 6 h, 5 µM: human; for remaining at 6 h, 5 µM / fraction unbound at 6 h, 5 µM: plasma
Description: Metabolic stability was assessed in mouse and rat liver microsomes. […] A plasma protein binding assay was performed to assess the extent of compound binding to plasma proteins. This is key as only unbound compound is free to distribute and exert a pharmacological effect. […] To assess the potential for this sub-class of SSAs to be developed as drugs for oral administration, Caco-2 permeability assays were also performed, as a cellular model indicative of human intestinal permeability. […] The […] MS/MS analysis. Samples were analysed using a Shimadzu liquid chromatography system coupled to a Triple Quad 6500+ mass spectrometry (AB Inc.) Separation of compounds was achieved using an HSS T3 column (50 x 2.1 mm) at a temperature of 40 °C and a binary mobile phase gradient at a flow rate of 0.7 mL/min. […] This was ramped to 95 % solvent B at 0.7 minutes, held for 0.5 minutes and then […] returned to initial conditions. Sample analysis was by electrospray ionisation. Protein Binding Measurements in Human Plasma by Using Equilibrium Dialysis Method : The fraction unbound in human plasma (P -KB, Ltd People's hospital of Shandong) were measured using 96-well Equilibrium Dialysis Plate (HTDialysis LLC, Gales Ferry, CT). Human plasma containing 5 μM test compound were dialysed against dialysis buffer (PBS) with initial samples taken to allow for assessment of plasma stability and recovery before the plate was incubated for 6 hours at 37 °C at 5 % CO2. Samples were removed at 6 hours, and all samples […] appropriate analytical internal standard. Samples were centrifuged at 3,220 g for 30 minutes (Eppendorf 5810R) to precipitate protein and enable sampling of supernatant prior to appropriate dilution for liquid chromatography mass -spectrometry (LC-MS/MS) analysis. Samples were analysed using a Shimadzu coupled to a triple Quad 6500 + (AB Inc., Illinois). Separation of analytes was achieved using a Xselect Hss T3 (2.1 x 50 mm) column at a temperature of 40 °C and a binary mobile phase gra dient at a flow rate of 0.8 mL/min. Initial […] formic acid in acetonitrile); this was ramped to 98 % B at 0.5 min, held for 0.4 min and then immediately returned to initial conditions. Sample analysis was by electrospray ionisation in positive ion mode. Bi-directional Permeability in Caco-2 Cell Line: The bi-directional permeability in Caco-2 cell lines was determined by seeding cells onto an HTS Transwell plate. Cells were cultivated for 14-18 days in a cell culture incubator at 37 °C, 5 % CO2, 95 % relative humidity. Cell culture medium was replaced every other day. To assess monolayer integrity the transepithelial electrical resistance (TEER) across the monolayer was measured using Millicell Epithelial volt-ohm meter prior to assay and Lucifer yellow (LY) fluorescence measurement post-assay. Test and control compounds were prepared in DMSO and diluted in Hank's Balanced Saline […] Compound was added to the donor compartment of the transwell plate for both apical to basolateral (A>B) and basolateral to apical (B>A) measurements, with blank HBSS being added to the receiver compartment. The transwell plate was then incubated at 37 °C, 5 % CO2 for 2 hours. 5

[4] = test system: P. aeruginosa PAO1; assay: inhibition of bacterial growth, OD600 after 20 h; assay type: cell-based, Pseudomonas aeruginosa; conditions: SSA 5.0 mM, 2.5% ethanol, negative = enhanced growth
Description: as §1, §2, §3, §4, §5, §6, §7, §8

[5] = test system: E. faecium NCTC 12204; assay: inhibition of bacterial growth, OD600 after 20 h; assay type: cell-based, Enterococcus faecium; conditions: SSA 5.0 mM, 2.5% ethanol, negative = enhanced growth
Description: as §1, §2, §3, §4, §5, §6, §7, §8

[6] = dynamic light scattering (DLS) of SSA aggregates; assay type: physicochemical; conditions: 5.6 mM, H2O 5.0% EtOH, 298 K
Description: Dynamic light scattering (DLS) and zeta potential measurements in H2O 5.0% EtOH were used to determine the hydrodynamic diameter (dH) and stability of the higher-order SSA aggregates detected by (Q) ^1H NMR spectroscopy at 5.6 mM, Table 1. […] However, we are unable to confidently report a dH for 1 due to the instability of this system, which is supported by a zeta potential value of −26 mV, obtained for this SSA under the same experimental conditions. […] Due to the instability of these systems in the absence of solvent, attempts to further characterise these systems through SEM or AFM are not possible.[48]

[7] = 6 hours, read-out: % Bound (converted)

| Structure (SMILES) | Percentage inhibition of bacterial growth, NCTC 775 (E. faecalis) [1] | Percentage inhibition of bacterial growth, ATCC 17978 (A. baumannii) [2] | Percentage inhibition of bacterial growth, PAO1 (P. aeruginosa) [4] | Percentage inhibition of bacterial growth, NCTC 12204 (E. faecium) [5] | recovery at 6 h, 5 µM ([3]; 6 hours) | remaining at 6 h, 5 µM [3] | fraction unbound at 6 h, 5 µM [3, 7] | fraction unbound at 6 h, 5 µM ([3]; 6 hours, read-out: % Unbound) | further results |
| --- | --- | --- | --- | --- | --- | --- | --- | --- | --- |
| O=C(O)CC[C@H](NC(=O)Nc1ccc(C(F)(F)F)cc1)C(=O)O [SSA 2] | 21.86% and 22% | -23.34% and −23% | -11.25% and −11% | 66.25% and 66% |  |  |  |  | % Remaining at 6 hr [3]: 108.64%; % Bound ([3]; 6 hours): 78.73%; % Recovery ([3]; 6 hours): 97.50%; % Unbound ([3]; 6 hours): 21.27%; Polydispersity index (%) [6]: 18.2 (± 1.1) %; dH (DLS intensity distribution peak 1 maxima) [6]: 140 nm |
| O=C(O)CC[C@H](NC(=O)Nc1ccc(Br)cc1)C(=O)O [SSA 9] |  |  |  |  | 94.9% | 106% | 0.166 | 0.166 | Percentage inhibition of bacterial growth, NCTC 775 (E. faecalis) ([1]; listed as 9): 20%; Percentage inhibition of bacterial growth, ATCC 17978 (A. baumannii) ([2]; listed as 9): -8.08% and −8%; Percentage inhibition of bacterial growth, NCTC 12204 (E. faecium) ([5]; listed as 9): 44.44% and 44%; Polydispersity index (%) ([6]; listed as 9): 25.6 (± 1.0) %; dH (DLS intensity distribution peak 1 maxima) ([6]; listed as 9): 178 nm |
| O=C(O)CC[C@@H](NC(=O)Nc1ccc(C(F)(F)F)cc1)C(=O)O [SSA 3] |  |  |  |  | 99.6% | 102% | 0.23 | 0.23 | inhibition at 5000 µM ([1]; Enterococcus faecalis, NCTC775, 20 h, read-out: Percentage inhibition of bacterial growth, NCTC 775 (E. faecalis)): 98.8%; Percentage inhibition of bacterial growth, NCTC 775 (E. faecalis) ([1]; listed as 3): 99%; Percentage inhibition of bacterial growth, ATCC 17978 (A. baumannii) ([2]; listed as 3): 94.45% and 94%; Percentage inhibition of bacterial growth, PAO1 (P. aeruginosa) ([4]; listed as 3): -35.71% and −36%; inhibition at 5000 µM ([5]; Enterococcus faecium, NCTC12204, 20 h, read-out: Percentage inhibition of bacterial growth, NCTC 12204 (E. faecium)): 99.4%; Percentage inhibition of bacterial growth, NCTC 12204 (E. faecium) ([5]; listed as 3): 99%; DLS Peak 2 maxima ([6]; listed as 3): 1410 nm; Polydispersity index (%) ([6]; listed as 3): 20.2 (± 0.7) %; dH (DLS intensity distribution peak 1 maxima) ([6]; listed as 3): 154 nm |
| O=C(O)CC[C@H](NC(=O)Nc1ccc(C(F)(F)F)cc1)C(=O)O [SSA 1] | 98.79% and 99% | 90.67% and 91% | -28.56% and −29% | 99.02% and 99% | 97.3% | 104% | 0.217 | 0.217 |  |
